The source of these data is patent US5447919A, “Sulfated oligosaccharides” (Hoffmann-La Roche Inc., priority 1991, dated 1995).

Assay [1] deals with smooth muscle cells of rats. Kind of assay: Anti-proliferative activity in smooth muscle cell culture (% inhibition of growth after 7 days). To be noted: for Anti-proliferative activity % inhibition: rat smooth muscle cells, 7 days, test substance 100 mg/ml as printed (100 μl/ml), vs non-inhibited growth. The class given is cell-based, rat. On the procedure: The anti-proliferative activity of the substances was determined in cell cultures as follows: smooth muscle cells of rats (cultivated in DMEM with 10% FCS at 37° C. and 5% CO2) were applied to cell culture plates with a density of 8×10^3 cells/well. After 4 hours, the number of adhered cells was determined and the substances to be tested ([…]) were added. Cells to which test substance was not added served as a comparison and heparin ([…]) served as a positive control. The cells were incubated for 7 days and then the cell number was determined. The antiproliferative activity of the individual substances was calculated as the % inhibition in comparison to non-inhibited growth: [formula] wherein cell number(d=0) =cell number after 4 h […]
cell number(-) =cell number to which test substances was not added, after 7 days. cell number (inhib) =cell number with […] of the test substance

In the next assay the test system is citrated human plasma. Kind of assay: aPTT (activated partial thromboplastin time) Test. As to conditions: concentration which leads to a coagulation time double the control value. The class given is biochemical. On the procedure:
(§1) The blood coagulation-ihibiting activity was determined as follows:
aPTT (activated partial thromboplastin time) Test (see Walenga et al., CRC Critical Reviews in Laboratory Sciences 22 (4) 361-389(1986)): 100 μl of citrated human plasma, which contains various concentrations of test compound, are incubated at 37° C. for 8 minutes with 100 μl of Activated Thrombofax (Ortho Diagnostics, Raritan, N.J., U.S.A.). 100 μl of prewarmed 25 mM calcium chloride solution are then added and the coagulation time is measured in a Fibrometer Coagulation Timer (Becton, Dickinson Basle).
(§2) The activity of the test compound is given as the IC50, which is that concentration [μg/ml] which leads to a coagulation time which is double the control value.

The target of another assay is Factor Xa (Bos taurus, UniProt P00743). In words: anti-Xa Clotting Assay. The class given is biochemical. As to conditions: concentration which leads to a coagulation time double the control value; citrated plasma. On the procedure: as §1
anti-Xa Clotting Assay: 25 μl of citrated plasma having various concentrations of test compound are mixed with 75 μl of Factor Xa (Diagnostic Reagents, Thame, Oxon, Great Britain) diluted 1:100 in 0.63% citrate buffer (pH 7.3) which contains 41 mM imidazole, 82 mM NaCl and 0.1% albumin. After warming to 37° C. for 2 minutes, 200 μl of a 1:1 mixture of Factor X Deficient Plasma (Diagnostic Reagents) and Platelet Substitute (Diagnostic Reagents) are added and the mixture is incubated at 37° C. for 20 seconds. After the addition of 100 μl of pre-warmed 50 mM calcium chloride solution, the coagulation time is measured in a Fibrometer.
as §2

Factor Xa, sequence (P00743 234-492 limits assumed): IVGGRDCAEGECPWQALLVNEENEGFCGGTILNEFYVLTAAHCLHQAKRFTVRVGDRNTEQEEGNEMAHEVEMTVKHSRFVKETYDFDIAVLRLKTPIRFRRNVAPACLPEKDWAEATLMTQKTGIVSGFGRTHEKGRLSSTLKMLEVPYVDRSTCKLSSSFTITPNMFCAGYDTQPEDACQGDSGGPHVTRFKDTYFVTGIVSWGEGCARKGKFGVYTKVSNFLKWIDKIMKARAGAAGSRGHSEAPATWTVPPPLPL
Factor Xa, sequence (P00743 41-180 partner limits assumed): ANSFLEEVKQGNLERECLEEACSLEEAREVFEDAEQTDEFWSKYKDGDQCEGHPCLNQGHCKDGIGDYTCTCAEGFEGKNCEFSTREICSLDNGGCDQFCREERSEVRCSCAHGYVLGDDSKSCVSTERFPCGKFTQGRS

Regarding sulfated melezitese [Example 2], the “Anti-proliferative activity % inhibition” value in assay [1] is listed as 25%. Further, the “Anti-coagulation activity IC50, Coagulation inhibition aPTT” value with citrated human plasma came to 150 µg/mL. Further, the “Anti-coagulation activity IC50, Coagulation inhibition Xa” value on Factor Xa worked out at 250 µg/mL.

On to Heparin [reference compound], for which the “anti-proliferative activity (in words)” value in assay [1] (summary of test results of Table 1) is “anti-proliferatively active”.

Turning to sulfated raffinose [Example 1], the “Anti-proliferative activity % inhibition” value in assay [1] is given as 41%. Besides, the “Anti-coagulation activity IC50, Coagulation inhibition aPTT” value in the assay with citrated human plasma is 27 µg/mL. For the same substance, the “Anti-coagulation activity IC50, Coagulation inhibition Xa” value at Factor Xa was greater than 1000 µg/mL.
